Structures can show the parent of a compound that is named as a salt.
Columns and labels:
human MCHR1 [1] = molecular target: T1, human MCHR1 (Homo sapiens, UniProt Q99705); assay: Functional GTPγ35S binding assay: inhibition of MCH-stimulated GTPγ35S binding to membranes of AV-12 cells expressing human MCHR1; assay type: biochemical; details: Kb from IC50 by modified Cheng-Prusoff (Leff and Dougal)
T1 construct: expressed in transfected cells; host or cells: AV-12 cells (clone 43), membranes
Excerpt: (§1) One of skill in the art is able to perform both the ^125I-MCH binding and functional GTPγ^35S binding assays using the procedures herein or procedures disclosed in the art. For binding assay, see for example, Macdonald, D., et al., 2000. Molecular characterization of the melanin-concentrating hormone/receptor complex: identification of critical residues involved in binding and activation. Mol Pharmacol 58, 217-225. For GTPgammaS functional assay, see for example, Gao, X., et al., 2004. Europium-labeled melanin-concentrating hormone analogues: ligands for measuring binding to melanin-concentrating hormone receptors 1 and 2. Anal Biochem 328, 187-195.
Functional antagonism of MCH activity is assessed by measuring the ability of a test compound to inhibit MCH-stimulated binding of GTPγ^35S to membranes isolated from AV-12 cells expressing the human MCHR1 using a scintillation proximity assay. […] After verifying competitive antagonism by Schild analysis, Kb values are calculated from the IC50 values for each antagonist and the EC50 for MCH (determined independently) using a modification of the Cheng-Prusoff approximation as described by Leff and Dougal (Trends Pharmacol. Sci. (1993) 14: 110-112). […]

[2] = In vivo efficacy in diet-induced obese male Long-Evans rats, oral gavage once a day for 3 days; details: 10 mg/Kg oral
Experimental: Animals are housed individually in a temperature regulated room (24° C.) with a reverse 12 hour light/dark cycle (dark 10:00/22:00). Water and food (Teklad 95217, Harlan, Wis.) were available ad libitum. Compounds are administered orally in a vehicle that consists of 10% acacia and 0.15% saccharin in water once a day before onset of the dark period for 3 days. Food intake and body weight are measured daily for the 3 day period. The compound of Example 29 produces an average body weight reduction of about 7 grams at a dose of 10 mg/Kg when compared to vehicle control.

human MCHR1 [3] = molecular target: T1, human MCHR1; assay: 125I-MCH competitive binding assay (scintillation proximity), membranes of AV-12 cells transfected with human MCHR1; details: Ki calculated from IC50 by Cheng-Prusoff, average
Excerpt: as §1
Binding of compounds to MCHR1 is assessed in a competitive binding assay employing ^125I-MCH, compound of the invention, and clone 43 membranes using scintillation proximity techniques. IC50 values (defined as the concentration of test compound required to reduce specific binding of ^125I-MCH by 50%) are determined by fitting the concentration-response data to a 4-parameter model (max response, min response, Hill coefficient, IC50) using a spreadsheet.

T1 sequence (Q99705 whole entry): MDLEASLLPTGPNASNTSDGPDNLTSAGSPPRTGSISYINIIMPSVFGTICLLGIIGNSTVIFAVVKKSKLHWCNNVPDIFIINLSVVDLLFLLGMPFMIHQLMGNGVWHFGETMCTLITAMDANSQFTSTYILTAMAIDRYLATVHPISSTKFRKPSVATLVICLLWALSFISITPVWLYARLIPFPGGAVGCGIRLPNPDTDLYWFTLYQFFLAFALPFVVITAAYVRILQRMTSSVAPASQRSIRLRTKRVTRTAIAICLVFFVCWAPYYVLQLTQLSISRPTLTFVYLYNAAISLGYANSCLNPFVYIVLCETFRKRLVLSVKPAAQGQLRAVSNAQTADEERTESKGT

COc1cc(N2CCc3nc(-c4ccc(Cl)cc4)sc3C2=O)ccc1OC1CN(C(C)C)C1 [Example 28, 2-(4-Chloro-phenyl)-5-[4-(1-isopropyl-azetidin-3-yloxy)-3-methoxy-phenyl]-6,7-dihydro-5H-thiazolo[5,4-c]pyridin-4-one, hydrochloride salt]
Kb (human MCHR1 [1]): ~6 nM

COc1cc(N2CCc3nc(-c4ccc(Cl)cc4)sc3C2=O)ccc1OC1CN(C2CCC2)C1.Cl [Example 29, 2-(4-Chloro-phenyl)-5-[4-(l-cyclobutyl-azetidin-3-yloxy)-3-methoxy-phenyl]-6,7-dihydro-5H-thiazolo[5,4-c]pyridin-4-one, hydrochloride salt]
average body weight reduction when compared to vehicle control [2]: about 7 grams

COc1cc(N2CCc3nc(-c4ccc(Cl)cc4)sc3C2=O)ccc1OC1CN(C2CC2)C1 [Example 37, 2-(4-Chloro-phenyl)-5-[4-(1-cyclopropyl-azetidin-3-yloxy)-3-methoxy-phenyl]-6,7-dihydro-5H-thiazolo[5,4-c]pyridin-4-one, hydrochloride salt]
Ki (human MCHR1 [3]): ~4 nM

Reference: patent US8049013B2, “5- [4-(azetidin-3-yloxy)-phenyl]-2-phenyl-5H-thiazolo[5,4-C] pyridin-4-one derivatives and their use as MCH receptor antagonists” (Eli Lilly and Company, priority 2006, dated 2011)
